Reference: BigSolDB 2.1

O=C(O)COc1ccc(Cl)cc1Cl
solubility (mole fraction)
Settings	in tetrachloromethane	in toluene
294.15 K	–	0.00118
298.65 K	–	0.00178
303.15 K	–	0.00264
303.65 K	4.99e-05	–
308.45 K	–	0.00399
310.65 K	0.000131	–
313.25 K	–	0.00547
313.55 K	0.000193	–
318.75 K	0.000414	0.00821
323.05 K	0.00074	–
323.15 K	–	0.0109
328.25 K	0.00146	–
328.85 K	–	0.015
332.95 K	0.00259	–
335.35 K	–	0.0207
338.05 K	0.00497	0.0235
